Results on 8 compounds are retold here after publication PMC9229255, “New Cladiellin-Type Diterpenoids from the South China Sea Soft Coral Cladiella krempfi: Structures and Molecular Docking Analysis in EGFRs” (Marine Drugs, 2022).

The target of data set [1] is T1, EGFR (Homo sapiens, UniProt P00533). In words: EGFR activity assay (kinase inhibition). In kind it is biochemical. The settings on record: concentration 20000 nM; read-out: EGFR inhibitory data, Mean (percentage of inhibition). How it is done:
Six compounds were screened on EGFRs using staurosporine obtained from MedChemExpress (Cat. No. HY-15141; Lot. No. 41248) as the reference compound. In the bioassay for the EGFRs, testing kinases were performed in 1× kinase base buffer containing 50 mM HEPES (pH 7.5) and 0.0015% Brij-35, and stop buffer containing 100 mM HEPES (pH 7.5), 0.0015% Brij-35, 0.2% Coating Reagent #3, and 50 mM EDTA. For the compound preparing part, compounds were diluted to 50X of the final desired highest inhibitor concentration in the reaction by 100% DMSO, and 100 µL of the compound dilution was transferred to a well in a 96-well plate. Additionally, 100 µL of 100% DMSO was added to two empty wells for a no-compound control and a no-enzyme control in the same 96-well plate, which was marked as the source plate. […]. The compounds were mixed in an intermediate plate for 10 min on a shaker. For the assay plate, 5 µL of each well from the 96-well intermediate plate was transferred to a 384-well plate in duplicates. For the kinase reaction, 2.5× enzyme solution and 2.5× peptide solution were prepared. Moreover, 5 µL of compound were settled in the assay plate with 10% DMSO. Additionally, 10 µL of 2.5× enzyme solution was added to each well of the 384-well assay plate that was incubated at room temperature for 10 min. Then, 10 µL of 2.5× peptide solution was added to each well of the 384-well that was incubated at 28 °C for 30 min and stopped by 25 µL stop buffer. The percentage of inhibition was estimated using max-conversion divided by the max-min, and inhibition values were converted by convert conversion values from the caliper program. IC50 values were obtained from fitting the data in the XLfit excel add-in version 4.3.1.

The subject of data set [2] is mouse lymphocytic leukemia L1210 cells. The arrangement: method as in doi:10.1021/jo00269a027. The settings on record: as low as; cited from earlier work.
For data set [3], the target named is T1, EGFR. The arrangement: method as in PMID 27940262. The settings on record: read-out: EGFR inhibitory activity IC50; cited from earlier work.

T1 sequence (P00533 25-1210): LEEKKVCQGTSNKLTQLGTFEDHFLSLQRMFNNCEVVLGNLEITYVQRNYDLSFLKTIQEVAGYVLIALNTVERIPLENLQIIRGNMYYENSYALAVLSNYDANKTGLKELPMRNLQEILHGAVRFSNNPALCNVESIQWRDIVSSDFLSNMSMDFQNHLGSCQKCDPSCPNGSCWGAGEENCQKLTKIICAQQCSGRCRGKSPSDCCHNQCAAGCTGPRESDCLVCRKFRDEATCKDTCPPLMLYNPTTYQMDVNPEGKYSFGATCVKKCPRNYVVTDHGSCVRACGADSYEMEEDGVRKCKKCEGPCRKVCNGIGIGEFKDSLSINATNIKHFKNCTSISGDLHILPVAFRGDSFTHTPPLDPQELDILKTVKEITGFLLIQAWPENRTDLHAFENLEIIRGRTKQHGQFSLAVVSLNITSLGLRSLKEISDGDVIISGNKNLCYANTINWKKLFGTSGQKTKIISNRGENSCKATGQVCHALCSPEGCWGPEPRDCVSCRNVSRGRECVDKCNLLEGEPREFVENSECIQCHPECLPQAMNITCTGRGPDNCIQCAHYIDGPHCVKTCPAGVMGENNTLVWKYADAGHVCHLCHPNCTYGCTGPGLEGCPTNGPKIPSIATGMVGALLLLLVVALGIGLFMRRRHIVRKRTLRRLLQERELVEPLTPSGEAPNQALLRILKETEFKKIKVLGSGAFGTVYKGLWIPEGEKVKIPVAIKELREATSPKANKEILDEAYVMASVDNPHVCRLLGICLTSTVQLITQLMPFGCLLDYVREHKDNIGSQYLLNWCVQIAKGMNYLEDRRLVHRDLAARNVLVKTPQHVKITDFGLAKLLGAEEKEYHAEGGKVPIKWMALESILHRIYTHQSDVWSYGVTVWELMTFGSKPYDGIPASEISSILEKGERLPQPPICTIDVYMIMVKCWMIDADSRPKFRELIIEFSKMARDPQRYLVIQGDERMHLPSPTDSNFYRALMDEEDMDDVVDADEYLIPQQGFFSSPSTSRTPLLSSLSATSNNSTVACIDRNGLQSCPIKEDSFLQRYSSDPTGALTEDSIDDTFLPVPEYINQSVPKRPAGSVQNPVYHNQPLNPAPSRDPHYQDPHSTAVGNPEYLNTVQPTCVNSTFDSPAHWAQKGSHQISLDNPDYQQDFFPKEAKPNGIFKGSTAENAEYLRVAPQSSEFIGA

Take `C=C1CC[C@H](C(C)C)[C@@H]2[C@H]1[C@@H]1O[C@H]2[C@](C)(OC(=O)CCC)CC[C@H](O)C(=C)[C@H]1O` [Compound 3, litophynol A]: on EGFR [1], the inhibition at 20 µM was -3.8%.
On the same count and under the same terms, under `C=C1CC[C@H](C(C)C)[C@@H]2[C@H]1[C@@H]1O[C@H]2[C@](C)(OC(=O)CCC)CC[C@H](OC)[C@@](C)(O)[C@H]1O` [Compound 5, kremfielin B] stands -7.5%.
On the same count and under the same terms, the figure for `C=C1CC[C@H](C(C)C)[C@@H]2[C@H]1[C@H]1C[C@](C)(O)[C@@H](O)CC[C@@](C)(OC(=O)CCC)[C@@H]2O1` [Compound 6, litophynin E] is -4.9%.
Consider `C=C1CC[C@H](C(C)C)[C@@H]2[C@H]1[C@H]1C[C@](C)(O)[C@@H](O)CC[C@@](C)(O)[C@@H]2O1` [sclerophytin A], for which the “concentration showing significant cytotoxicity” value in data set [2] is recorded as 1 ng/mL.
Consider `C=C1CC[C@H](C(C)C)[C@@H]2[C@H]1[C@@H]1O[C@H]2[C@](C)(OC(=O)CCC)CC[C@H](O)C(=C)[C@H]1OC(=O)CCC` [Compound 4, 8-butyryl-litophynol A], for which the inhibition at 20 µM at EGFR [1] was -3.4%.
`C=C1C(O)CCC(C)(OC(=O)CCC)C2OC(C1OC(C)=O)C1C(=C)C(O)CC(C(C)C)C12` (stereo not drawn) [Compound 1, litophynol C] gave a melting point of 183 to 184 °C. In addition, on EGFR [1], the inhibition at 20 µM is -9.9%.
Regarding `C=C1C(OO)CCC(C)(OC(=O)CCC)C2OC(C1OC(C)=O)C1C(=C)C(O)CC(C(C)C)C12` (stereo not drawn) [Compound 2, litophynol D], the inhibition at 20 µM at EGFR [1] is -12.5%.
In the case of `CCCC(=O)O[C@]1(C)CC[C@H](C(C)C)[C@@H]2[C@H]1[C@H]1C[C@](C)(O)[C@@H](O)CC[C@@](C)(OC(C)=O)[C@@H]2O1` [pachycladin A], the IC50 on EGFR [3] was 500 nM.

As usually defined, the inhibition is the drop in the measured response relative to a control, in per cent. The term melting point denotes the temperature, or range, at which the solid turns liquid. Broadly, the IC50 is the concentration at which inhibition is half-maximal.
